Reference: patent publication US20260158009A1 (GENZYME CORPORATION, priority 2023, published 2026)

Tests used:
U937 cells = test: Cellular assay in U937 cells: activity of RIPK1 inhibitors on TNFα/zVAD.fmk-induced cell death (necroptosis), CellTiter 96 AQueous (MTS) readout; assay type: cell-based; settings: Homo sapiens, U-937
Outline: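 Necroptosis was measured by viable-cell MTS reduction (4 h, absorbance 490 nm) after overnight (18–24 h) 37° C culture. Cell suspensions of U937 cells carried TNFα (100 ng/ml) plus zVAD.fmk (50 μM) before compound was added. A 10-point curve (10 μM–0.26 nM or 1 μM–0.07 nM) was run in duplicate, normalised to the control lacking TNFα/zVAD.fmk.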

[1] = target: T1, hRIPK1 (aa 1-375) fusion protein (Homo sapiens, UniProt Q13546); test: ADP-Glo kinase assay: catalytic activity of RIPK1 (autophosphorylation, conversion of ATP to ADP); assay type: biochemical
T1 construct: hRIPK1 (aa 1-375) fusion protein
T1 sequence (Q13546 1-375): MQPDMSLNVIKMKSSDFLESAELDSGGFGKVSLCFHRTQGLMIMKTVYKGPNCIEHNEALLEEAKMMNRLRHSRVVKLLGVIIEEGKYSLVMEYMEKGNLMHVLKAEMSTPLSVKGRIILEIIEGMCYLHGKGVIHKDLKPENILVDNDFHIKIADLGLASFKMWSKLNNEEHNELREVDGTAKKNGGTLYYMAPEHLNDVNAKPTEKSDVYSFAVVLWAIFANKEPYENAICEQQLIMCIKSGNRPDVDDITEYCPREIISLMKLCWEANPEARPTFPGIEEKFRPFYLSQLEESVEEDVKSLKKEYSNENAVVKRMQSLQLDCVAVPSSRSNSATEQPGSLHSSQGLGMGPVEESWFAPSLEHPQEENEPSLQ
Outline: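 The readout was ADP-Glo luminescence after a 240 min rt autophosphorylation reaction with 50 μM ATP, following 30 min preincubation of 3.6 μg/ml hRIPK1 (aa 1-375) fusion with compound at 33300-1.69 nM final in 1% DMSO. Values came from Levenberg-Marquardt nonlinear fits.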

SMILES	IC50 (U937 cells) [nM]	IC50 [1] [nM]
Cc1nccn1-c1cc(F)cc(C[C@H]2CC[C@H](C(=O)N3OCC[C@H]3c3cnccn3)CC2)c1 [compound 209, trans-[4-[[3-fluoro-5-(2-methylimidazol-1-yl)phenyl]methyl]cyclohexyl]-[(3S)-3-pyrazin-2-ylisoxazolidin-2-yl]methanone]	54	22
N#Cc1cc(F)cc([C@@H]2CCON2C(=O)[C@H]2CC[C@H](Cc3ccc(CCO)c(F)c3)CC2)c1 [compound 279, trans-3-fluoro-5-[(3S)-2-[4-[[3-fluoro-4-(2-hydroxyethyl)phenyl]methyl]cyclohexanecarbonyl]isoxazolidin-3-yl]benzonitrile]	9	7
N#Cc1cncc([C@@H]2CCON2C(=O)[C@H]2CC[C@H](Cn3ccc4c(F)cc(C#N)cc43)CC2)c1 [compound 130, trans-1-((4-((S)-3-(5-cyanopyridin-3-yl)isoxazolidine-2-carbonyl)cyclohexyl)methyl)-4-fluoro-1H-indole-6-carbonitrile]	2	11
Cc1nc2cc(C[C@H]3CC[C@H](C(=O)N4OCC[C@H]4c4csc(C)n4)CC3)ccn2n1 [compound 372, trans-[(S)-3-(2-Methyl-thiazol-4-yl)-isoxazolidin-2-yl]-[4-(2-methyl-[1,2,4]triazolo[1,5-a]pyridin-7-ylmethyl)-cyclohexyl]-methanone]	103	53
Cc1nc2cc(F)ccc2n1C[C@H]1CC[C@H](C(=O)N2OCC[C@H]2c2cc(F)cc(C#N)c2)CC1 [compound 50, trans-3-fluoro-5-((S)-2-(4-((5-fluoro-2-methyl-1H-benzo[d]imidazol-1-yl)methyl)cyclohexane-1-carbonyl)isoxazolidin-3-yl)benzonitrile]	29	27
NC(=O)c1cc(C[C@H]2CC[C@H](C(=O)N3OCC[C@H]3c3ccc(F)cc3)CC2)ccc1F [compound 191, trans-2-fluoro-5-[[4-[(3S)-3-(4-fluorophenyl)isoxazolidine-2-carbonyl]cyclohexyl]methyl]benzamide]	9	10
Cn1nccc1C[C@H]1CC[C@H](C(=O)N2OCC[C@H]2c2ccc(F)cc2)CC1 [compound 306, trans-[(3S)-3-(4-fluorophenyl)isoxazolidin-2-yl]-[4-[(2-methylpyrazol-3-yl)methyl]cyclohexyl]methanone]	25	17
N#Cc1cc2c(cc1F)ncn2C[C@H]1CC[C@H](C(=O)N2OCC[C@H]2c2cc(F)cc(F)c2)CC1 [compound 12, trans-1-((4-((S)-3-(3,5-difluorophenyl)isoxazolidine-2-carbonyl)cyclohexyl)methyl)-5-fluoro-1H-benzo[d]imidazole-6-carbonitrile]	3	33
Cc1cc([C@@H]2CCON2C(=O)[C@H]2CC[C@H](Cn3ncc4c(F)cc(C#N)cc43)CC2)co1 [compound 44, trans-4-fluoro-1-((4-((S)-3-(5-methylfuran-3-yl)isoxazolidine-2-carbonyl)cyclohexyl)methyl)-1H-indazole-6-carbonitrile]	2	17
Cc1nc([C@@H]2CCON2C(=O)[C@H]2CC[C@H](Cn3cc4ccc(C#N)cc4n3)CC2)cs1 [compound 203, trans-2-[[4-[(3S)-3-(2-methylthiazol-4-yl)isoxazolidine-2-carbonyl]cyclohexyl]methyl]indazole-6-carbonitrile]	432	125
N#Cc1cc(F)cc([C@@H]2CCON2C(=O)[C@H]2CC[C@H](Cn3cc4cc(C#N)ccc4n3)CC2)c1 [compound 59, trans-2-((4-((S)-3-(3-cyano-5-fluorophenyl)isoxazolidine-2-carbonyl)cyclohexyl)methyl)-2H-indazole-5-carbonitrile]	166	30
Cc1nn(C[C@H]2CC[C@H](C(=O)N3OCC[C@H]3c3cc(F)cc(C#N)c3)CC2)c2cc(C(N)=O)cc(F)c12 [compound 102, trans-1-((4-((S)-3-(3-cyano-5-fluorophenyl)isoxazolidine-2-carbonyl)cyclohexyl)methyl)-4-fluoro-3-methyl-1H-indazole-6-carboxamide]	37	23
Cc1cn2nc(C[C@H]3CC[C@H](C(=O)N4OCC[C@H]4c4cc(F)cc(F)c4)CC3)c(C)cc2n1 [compound 293, trans-[(3S)-3-(3,5-difluorophenyl)isoxazolidin-2-yl]-[4-[(2,7-dimethylimidazo[1,2-b]pyridazin-6-yl)methyl]cyclohexyl]methanone]	3	14
Cc1ccc([C@@H]2CCON2C(=O)[C@H]2CC[C@H](Cc3cnc(C)nc3)CC2)cn1 [compound 344, trans-[(3S)-3-(6-methylpyridin-3-yl)-1,2-oxazolidin-2-yl]-[4-[(2-methylpyrimidin-5-yl)methyl]cyclohexyl]methanone]	173	243
Cc1ncc(C[C@H]2CC[C@H](C(=O)N3OCC[C@H]3c3cnc(C)c(F)c3)CC2)c(C)n1 [compound 393, [4-[(2,4-dimethylpyrimidin-5-yl)methyl]cyclohexyl]-[(3S)-3-(5-fluoro-6-methylpyridin-3-yl)-1,2-oxazolidin-2-yl]methanone]	33	51
N#Cc1ccc2c(cnn2C[C@H]2CC[C@H](C(=O)N3OCC[C@H]3c3cc(F)cc(F)c3)CC2)c1 [compound 52, trans-1-((4-((S)-3-(3,5-difluorophenyl)isoxazolidine-2-carbonyl)cyclohexyl)methyl)-1H-indazole-5-carbonitrile]	2	15
Cc1cnc([C@@H]2CCON2C(=O)[C@H]2CC[C@H](Cc3ccnn3C)CC2)cn1 [compound 395, trans-[(3S)-3-(5-methylpyrazin-2-yl)-1,2-oxazolidin-2-yl]-[4-[(2-methylpyrazol-3-yl)methyl]cyclohexyl]methanone]	45	44
Cc1cc(C[C@H]2CC[C@H](C(=O)N3OCCC3c3cnccn3)CC2)c(C)cn1 (stereo in doubt) [compound 356, trans-[4-(2,5-Dimethyl-pyridin-4-ylmethyl)-cyclohexyl]-((S)-3-pyrazin-2-yl-isoxazolidin-2-yl)-methanone]	5	26
N#Cc1cc(F)cc([C@@H]2CCON2C(=O)[C@H]2CC[C@H](Cn3ccc4cc(F)c(C(N)=O)cc43)CC2)c1 [compound 76, trans-1-((4-((S)-3-(3-cyano-5-fluorophenyl)isoxazolidine-2-carbonyl)cyclohexyl)methyl)-5-fluoro-1H-indole-6-carboxamide]	8	17
Cc1nc(C[C@H]2CC[C@H](C(=O)N3OCC[C@H]3c3cc(F)cc(C#N)c3)CC2)cs1 [compound 239, trans-3-fluoro-5-[(3S)-2-[4-[(2-methylthiazol-4-yl)methyl]cyclohexanecarbonyl]isoxazolidin-3-yl]benzonitrile]	5	27
Cn1cc(C[C@H]2CC[C@H](C(=O)N3OCC[C@H]3c3cc(F)cc(F)c3)CC2)cn1 [compound 236, trans-[(3S)-3-(3,5-difluorophenyl)isoxazolidin-2-yl]-[4-[(1-methylpyrazol-4-yl)methyl]cyclohexyl]methanone]	4	20
Cc1ccc([C@@H]2CCON2C(=O)[C@H]2CC[C@H](Cn3ncc4cc(C#N)c(F)cc43)CC2)cn1 [compound 298, 6-fluoro-1-[[trans-4-[(3S)-3-(6-methyl-3-pyridyl)isoxazolidine-2-carbonyl]cyclohexyl]methyl]indazole-5-carbonitrile]	6	20
N#Cc1cncc([C@@H]2CCON2C(=O)[C@H]2CC[C@H](Cn3ncc4cc(F)ccc43)CC2)c1 [compound 126, trans-5-((S)-2-(4-((5-fluoro-1H-indazol-1-yl)methyl)cyclohexane-1-carbonyl)isoxazolidin-3-yl)nicotinonitrile]	29	37
N#Cc1cc(F)cc([C@@H]2CCON2C(=O)[C@H]2CC[C@H](Cn3ccc4cnccc43)CC2)c1 [compound 15, trans-3-((S)-2-(4-((1H-pyrrolo[3,2-c]pyridin-1-yl)methyl)cyclohexane-1-carbonyl)isoxazolidin-3-yl)-5-fluorobenzonitrile]	11	46
Cc1ccc(C[C@H]2CC[C@H](C(=O)N3OCC[C@H]3c3cnccn3)CC2)cc1C(N)=O [compound 138, trans-2-methyl-5-[[4-[(3S)-3-pyrazin-2-ylisoxazolidine-2-carbonyl]cyclohexyl]methyl]benzamide]	25	18
Cc1ccc([C@@H]2CCON2C(=O)[C@H]2CC[C@H](Cn3nc(C)cc3C)CC2)cc1 [compound 117, trans-(4-((3,5-dimethyl-1H-pyrazol-1-yl)methyl)cyclohexyl)((S)-3-(p-tolyl)isoxazolidin-2-yl)methanone]	54	35
